Measured values taken from article PMC11571215, “Optimization of Antiproliferative Properties of Triimine Copper(II) Complexes” (Journal of Medicinal Chemistry, 2024).

Legend:
[1] = biological target: T1, bovine serum albumin (BSA) (Bos taurus, UniProt P02769); test: Interaction with bovine serum albumin (UV-vis, fluorescence); format: binding; conditions: 24 h, 37 °C; for BSA UV-Visible absorbance change: BSA 20 µM, complexes 10, 25 and 50 µM; for BSA fluorescence quenching: BSA 20 μM, complexes 10-100 µM, excitation 278 nm
T1 construct: composed of single polypeptide chains with 583 amino
Procedure: All solutions used to perform the BSA interaction assays were diluted in filtered buffer (10 mM phosphate buffer and 150 mM NaCl) pH 7.0, with BSA at a fixed final concentration of 20 μM and the concentrations of the complexes varying from 10 to 100 μM. Control solutions were also prepared, namely, a solution containing only BSA, a solution consisting of BSA + DMSO, and a solution consisting of DMSO only. Solutions were analyzed after 24 h of incubation at 37 °C. UV–visible absorption spectra were acquired using the Evolution 300 UV–vis (Thermo Fisher Scientific, Waltham, MA, USA) in the wavelength range between 245 and 500 nm in quartz cuvettes. The fluorescence of the samples mentioned was analyzed using a Cary Eclipse fluorimeter (VARIAN, California, USA). The BSA molecule was excited at 278 nm (maximum absorption peak), and emission was recorded between 290 and 500 nm. The setup was set at a slow speed (120 nm/min) using 5 nm slits. The absorbance value of the buffer containing DMSO (at the respective percentages) was subtracted from that of each sample.
12. Interaction with Bovine Serum Albumin (BSA)
In the perspective of translating the complexes into clinical practice and considering their administration and distribution in the human body, it is essential to examine their potential interaction with albumin, a protein present in human plasma at high concentrations. In this regard, bovine serum albumin (BSA) was utilized as a model. BSA is the most abundant plasma protein in vertebrates, sharing approximately 76% similarity with human serum albumin (HSA) and composed of single polypeptide chains with 583 amino […]
UV-Visible spectroscopy is an effective method for predicting conformational changes in proteins when interacting with small molecules such as drugs. The interaction of BSA […]
spectroscopy, considering the intrinsic fluorescence of tryptophan residues in BSA. Figure […]
DMSO and BSA in the presence of increasing concentrations of the metallic complexes.
(1 picture or pasted object on this page, not shown here)

HCT116-DoxR cells = test: Cellular senescence (beta-galactosidase, flow cytometry); format: cell-based, human; conditions: 48 h at IC50, vs 0.1% DMSO
Procedure: The percentage of senescent cells was assessed using the Senescence Assay Kit (Abcam), enabling the quantification of beta-galactosidase activity through flow cytometry. […] A 0.1% (v/v) DMSO solution served as vehicle control, and Dox and Cis were used as positive controls.
In this assay, a senescence assay kit (Beta Galactosidase, Fluorescence) (ab228562; Abcam, UK) was used. HCT116-DoxR cells were seeded in 24-well plates at a density of 5 × 10^5 cells/well and incubated for 24 h, at the conditions mentioned before. […] Additionally, 0.1% (v/v) DMSO was used as a vehicle control, and 6 μM Dox and 5 μM Cis were used as positive controls. At the end of the incubation period, the medium was removed, and 500 μL of DMEM with 1.5 μL of Senescence dye was added to each well. The plates were incubated for an additional 1–2 h at 37 °C. Subsequently, the well contents were removed, and the cells were washed twice with Wash Buffer (provided by the kit). The cells were trypsinized with TrypLE Express and then centrifuged for 5 min at 500 × g. After centrifugation, the cells were washed with the wash buffer, centrifuged, and resuspended again in 500 μL of Wash Buffer. The samples were subsequently analyzed by an Attune acoustic focusing flow cytometer (Life Technologies, Carlsbad, USA), and the results were analyzed by the respective software (Attune Cytometric software).

[2] = Stability/solubility in RPMI culture medium by UV-vis; format: physicochemical; conditions: 50 μM, without phenol red and FBS, 0 to 3 h, 37 °C
Procedure: The complexes (powder form) were first dissolved in 100% (v/v) DMSO and subsequently in RPMI culture medium without phenol red and fetal bovine serum (FBS), at a final concentration of 50 μM. Absorption spectra were recorded in the wavelength range of 220–800 nm. As previously, high-energy absorption bands corresponding to π → π* and n → π* transitions with peaks between 230 and 380 nm ranges were observed, which may correspond to the aromatic rings of terpyridine.[24],[38]
Copper complex stability in a biological medium was analyzed through UV–vis spectroscopy spanning a range from 220 to 800 nm. Complexes were dissolved in 100% (v/v) DMSO and subsequently diluted with RPMI medium (without phenol red) to achieve a final concentration of 50 μM. The measurements were conducted in a quartz cuvette with a 1 cm path length. Spectral analyses were obtained after 0, 3, 6, 24, and 48 h on the Evolution 300 UV–vis spectrophotometer (Thermo Fisher Scientific in Waltham, MA, USA).

calf-thymus DNA (ctDNA) = test: UV-vis absorption titration with ctDNA; format: binding; conditions: hyperchromic effect at ∼350 nm
Procedure: For both Cu(II) complexes, the addition of DNA results in a gradual increase in the absorption intensity of the band at ∼350 nm, while the band position remains the same (Figure 14).
These values fall in the range reported previously for related Cu(II) complex with 4′-((naphthalen-2-yl)methoxy)-2,2′:6′,2″-terpyridine[21] that was proposed as an “outside binder”.
Absorption titration experiments were conducted by maintaining the complex concentration constant (25 μM) and varying the concentration of ctDNA (0–100 μM). Blank ctDNA samples were used as a reference.

T1 sequence (P02769 25-607): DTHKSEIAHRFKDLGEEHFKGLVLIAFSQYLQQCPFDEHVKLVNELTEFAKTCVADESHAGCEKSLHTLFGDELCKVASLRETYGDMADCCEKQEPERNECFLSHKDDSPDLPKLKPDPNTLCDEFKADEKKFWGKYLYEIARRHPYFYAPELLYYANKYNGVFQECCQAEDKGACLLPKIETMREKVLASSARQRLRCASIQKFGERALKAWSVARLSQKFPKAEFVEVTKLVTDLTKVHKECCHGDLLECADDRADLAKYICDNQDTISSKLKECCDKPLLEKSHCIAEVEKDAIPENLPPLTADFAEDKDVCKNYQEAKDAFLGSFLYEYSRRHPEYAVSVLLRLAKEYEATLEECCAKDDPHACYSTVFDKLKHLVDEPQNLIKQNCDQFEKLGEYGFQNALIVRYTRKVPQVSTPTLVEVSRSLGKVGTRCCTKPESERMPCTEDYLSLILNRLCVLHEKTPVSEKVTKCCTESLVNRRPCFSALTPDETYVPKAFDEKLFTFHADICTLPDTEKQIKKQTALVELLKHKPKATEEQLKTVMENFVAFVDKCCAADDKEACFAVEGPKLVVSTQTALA

SMILES	BSA UV-Visible absorbance change [1]	BSA fluorescence quenching [1]	senescent cells (HCT116-DoxR cells)	solubility/stability in RPMI culture medium [2]	mode of interaction with DNA (calf-thymus DNA (ctDNA))
[Cl][Cu-3]12([Cl])[n+]3ccccc3-c3cc(-c4ccc5ccccc5c4)cc([n+]31)-c1cccc[n+]12 [Cu1b]	hypochromism	an increased quenching effect was observed	highest quantity of cells in senescence	a slight reduction of its solubility from 0 to 3 h	nonintercalative interactions with DNA, most likely via groove binding
[Cl][Cu-3]12([Cl])[n+]3ccccc3-c3cc(-c4cccc5ccccc45)cc([n+]31)-c1cccc[n+]12 [Cu1a]	hypochromism	attenuation of BSA fluorescence was observed	increase in the percentage of senescent cells	maintenance of solubility	nonintercalative interactions with DNA, most likely via groove binding
